PubChem BioAssay AID1845213 (Molecular Pharmacology Branch, DTP, NCI, 2023)
“And” between values parts separate entries of the source, which are not always exact repeats. Equal values may be shown once. The source made the active and inactive calls. The calls were made as follows: active = viability on the fitted dose curve at most 10% of control; inactive = the rest.

System: NCI-H841 complex tumor spheroid viability
Assay: Anticancer human tumor NCI-H841 cell line growth inhibition;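 as to IC50: spheroids exposed to compounds for 7 days before readout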;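 as to viability, T/C: spheroids exposed to compounds for 7 days before readout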
Conditions: for viability, T/C: stronger effect = lower value
From the text: Multicellular complex tumor spheroid response to DNA repair inhibitors in combination with DNA-damaging drugs
This study explores the anticancer activities of DNA-damaging drugs and inhibitors of DNA damage repair, both as single agents and in combinations. Complex tumor spheroids comprised of malignant cells, endothelial cells and mesenchymal stem cells served as an in vitro model for human solid tumors. This model system incorporates physiologically relevant features and patient-derived or established malignant cell lines with clinically relevant genetic alterations from many tumor types. Twenty-six patient-derived or established malignant cell lines were evaluated representing sarcoma, melanoma, small cell lung cancer (SCLC), non-small cell lung cancer (NSCLC), as well as bladder, ovarian and pancreatic cancers. The concentration ranges selected for each drug and investigational agent were based upon clinically achievable concentrations if the clinical Cmax of the agent was known.
Compounds. The drugs and compounds olaparib (NSC753686), talazoparib (NSC767125), berzosertib (NSC777718), elimusertib (NSC800525), nedisertib (NSC802822), VX-984 (NSC792969), AZD-1390 (NSC803789), temozolomide (NSC362856), topotecan (NSC609699), trabectedin (NSC813783), staurosporine (NSC755774), and gemcitabine (NSC613327) were obtained from the National Cancer Institute (NCI) Developmental Therapeutics Program Chemical Repository. The FDA-approved anticancer drug set is available from the Developmental Therapeutics Program at https://dtp.cancer.gov/organization/dscb/obtaining/available_plates.htm. […] The stock solutions were prepared in dimethyl sulfoxide (DMSO, Sigma-Aldrich, St. Louis, MO, cat. D2650) at 400-fold the tested concentration and stored at -70 degrees C. Prior to their use, the stock solutions were diluted in fresh medium and the final DMSO concentration in the assay was 0.25% (v/v). All drugs and investigational agents were tested over a range starting from a high concentration at or near the clinical Cmax and decreasing in half-log increments. If the clinical Cmax for an agent had not been determined, the highest concentration tested was 10 microM.
Cell Lines. The patient-derived cancer cell (PDC) lines: 156681-154-R-J1-PDC, 283228-195-R-J1-PDC, 287954-098-R-J1-PDC, 292921-168-R-J2-PDC, 349418-098-R-PDC, 425362-245-T-J1-PDC, 556581-035-R-J1-PDC, and BL0293-F563-PDC were received from the NCI Patient-Derived Models Repository (PDMR, https://pdmr.cancer.gov). The established cell lines HS-SY-2 (RRID:CVCL_8719), MPNST, and SYO-1 (RRID:CVCL_7146) were obtained from the Sloan Kettering Institute. The alveolar soft parts sarcoma cell line ASPS-1 (RRID:CVCL_S738) was established at the NCI and grown from internal seed stocks. The following established cell lines were purchased from the American Type Culture Collection (ATCC, Manassas, VA): G-401 (ATCC, cat. CRL-1441, RRID:CVCL_0270), SW982 (ATCC, cat. HTB-93, RRID:CVCL_1734), VA-ES-BJ (ATCC, cat. CRL-2138, RRID:CVCL_1785), NCI-H719 (ATCC, cat. CRL-5837, RRID:CVCL_1582), NCI-H196 (ATCC, cat. CRL-5823, RRID:CVCL_1509), NCI-H841 (ATCC, cat. CRL-5845, RRID:CVCL_1595), NCI-H1618 (ATCC, cat. CRL-5879, RRID:CVCL_1480), NCI-H1876 (ATCC, cat. CRL-5902, RRID:CVCL_1503), DMS 114 (ATCC, cat. CRL-2066; RRID:CVCL_1174), NCI-H211 (ATCC, cat. CRL-5824; RRID:CVCL_1529), and SW 1271 (ATCC, cat. CRL-2177, RRID:CVCL_1716). The small cell lung cancer cell line COR-L88 was purchased from Sigma-Aldrich (cat. 92031917-1VL, RRID:CVCL_1141). The non-small cell lung cancer cell lines NCI-H226 (RRID:CVCL_1544) and NCI-H322M (RRID:CVCL_1557) were established at the NCI and grown from internal seed stocks. Pooled donor human umbilical vein endothelial cells (HUVEC, Lonza, cat. CC-2519) and human mesenchymal stem cells (hMSC, Lonza, cat. PT-2501) were purchased from Lonza (Walkersville, MD).
Cell Culture. All cells were maintained in an incubator at 37 degrees C and 5% CO2 with 95% humidity. […]

`CC(C)n1c(=O)n(C)c2cnc3cc(F)c(-c4ccc(OCCCN5CCCCC5)nc4)cc3c21` + Cn1nnc2c(C(N)=O)ncn2c1=O was tested, and the IC50 (curve of first compound, second compound 1 µM) was > 10000 nM, the IC50 (curve of first compound, second compound 3.16 µM) was > 10000 nM and the IC50 (curve of first compound, second compound 10 µM) was > 10000 nM. It also gave an IC50 (curve of first compound, second compound 31.6 µM) of 8520 nM, an IC50 (curve of first compound, second compound 100 µM) of 3910 nM and a viability, T/C (second compound 1 µM, first compound 0.0316 µM) of 91.3%. For the same compound, the viability, T/C (second compound 1 µM, first compound 0.1 µM) was 93.5%, the viability, T/C (second compound 1 µM, first compound 0.316 µM) was 95.3% and the viability, T/C (second compound 1 µM, first compound 1 µM) was 92.3%. The viability, T/C (second compound 1 µM, first compound 3.16 µM) was 85.8%, the viability, T/C (second compound 1 µM, first compound 10 µM) was 57.5% and the viability, T/C (second compound 3.16 µM, first compound 0.0316 µM) was 94.5%. For the same compound, the viability, T/C (second compound 3.16 µM, first compound 0.1 µM) was 96.1%, the viability, T/C (second compound 3.16 µM, first compound 0.316 µM) was 99.9% and the viability, T/C (second compound 3.16 µM, first compound 1 µM) was 90.5%. The viability, T/C (second compound 3.16 µM, first compound 3.16 µM) was 89.3%, the viability, T/C (second compound 3.16 µM, first compound 10 µM) was 77.4% and the viability, T/C (second compound 10 µM, first compound 0.0316 µM) was 93.1%. The viability, T/C (second compound 10 µM, first compound 0.1 µM) was 94.1%, the viability, T/C (second compound 10 µM, first compound 0.316 µM) was 94.8% and the outcome (second compound 10 µM, first compound 1 µM) was “inactive”. The viability, T/C (second compound 10 µM, first compound 3.16 µM) was 88%, the viability, T/C (second compound 10 µM, first compound 10 µM) was 62.4% and the viability, T/C (second compound 31.6 µM, first compound 0.0316 µM) was 91%. The viability, T/C (second compound 31.6 µM, first compound 0.1 µM) was 92.2%, the viability, T/C (second compound 31.6 µM, first compound 0.316 µM) was 87.9% and the viability, T/C (second compound 31.6 µM, first compound 1 µM) was 88.4%. The viability, T/C (second compound 31.6 µM, first compound 3.16 µM) was 76.2%, the viability, T/C (second compound 31.6 µM, first compound 10 µM) was 45.8% and the viability, T/C (second compound 100 µM, first compound 0.0316 µM) was 84.4%. The viability, T/C (second compound 100 µM, first compound 0.1 µM) was 82.8%, the viability, T/C (second compound 100 µM, first compound 0.316 µM) was 77.9% and the viability, T/C (second compound 100 µM, first compound 1 µM) was 75.9%. It also gave a viability, T/C (second compound 100 µM, first compound 3.16 µM) of 52.9% and a viability, T/C (second compound 100 µM, first compound 10 µM) of 35.5%.

For `Cc1sc2c(c1C)C(c1ccc(Cl)cc1)=NC(CC(=O)Nc1ccc(O)cc1)c1nnc(C)n1-2` (configuration not stated), the viability, T/C (compound 0.00949 µM) was 104% and 97.9% and 102%, the viability, T/C (compound 0.03 µM) was 110% and 95.7% and 101% and the viability, T/C (compound 0.0949 µM) was 87.8% and 91.9% and 91.2%. For the same compound, the viability, T/C (compound 0.3 µM) was 65.4% and 75.9% and 82.7%, the viability, T/C (compound 0.949 µM) was 25.2% and 33.3% and 44% and the viability, T/C (compound 3 µM) was 8.1% and 7.29% and 14.4%. For the same compound, the IC50 (curve of compound) was 452 nM and 604 nM and 807 nM.

With `Cc1sc2c(c1C)C(c1ccc(Cl)cc1)=NC(CC(=O)Nc1ccc(O)cc1)c1nnc(C)n1-2` (configuration not stated) + CC[C@@]1(O)C(=O)OCc2c1cc1n(c2=O)Cc2cc3c(CN(C)C)c(O)ccc3nc2-1 the IC50 (curve of first compound, second compound 0.003 µM) was 152 nM, the IC50 (curve of first compound, second compound 0.00949 µM) was 12.7 nM and the IC50 (curve of first compound, second compound 0.03 µM) was < 9.49 nM. For the same compound, the IC50 (curve of first compound, second compound 0.0949 µM) was < 9.49 nM, the IC50 (curve of first compound, second compound 0.3 µM) was < 9.49 nM and the viability, T/C (second compound 0.003 µM, first compound 0.00949 µM) was 88%. For the same compound, the viability, T/C (second compound 0.003 µM, first compound 0.03 µM) was 85%, the viability, T/C (second compound 0.003 µM, first compound 0.0949 µM) was 66.2% and the viability, T/C (second compound 0.003 µM, first compound 0.3 µM) was 26.5%. The viability, T/C (second compound 0.003 µM, first compound 0.949 µM) was 6.68%, the viability, T/C (second compound 0.003 µM, first compound 3 µM) was 1.61% and the viability, T/C (second compound 0.00949 µM, first compound 0.00949 µM) was 63.4%. For the same compound, the viability, T/C (second compound 0.00949 µM, first compound 0.03 µM) was 9.92%, the viability, T/C (second compound 0.00949 µM, first compound 0.0949 µM) was 27.9% and the viability, T/C (second compound 0.00949 µM, first compound 0.3 µM) was 4.81%. The viability, T/C (second compound 0.00949 µM, first compound 0.949 µM) was 1.04%, the viability, T/C (second compound 0.00949 µM, first compound 3 µM) was 0.47% and the viability, T/C (second compound 0.03 µM, first compound 0.00949 µM) was 1.92%. For the same compound, the viability, T/C (second compound 0.03 µM, first compound 0.03 µM) was 4.07%, the viability, T/C (second compound 0.03 µM, first compound 0.0949 µM) was 0.85% and the viability, T/C (second compound 0.03 µM, first compound 0.3 µM) was 0.58%. For the same compound, the viability, T/C (second compound 0.03 µM, first compound 0.949 µM) was 0.55%, the viability, T/C (second compound 0.03 µM, first compound 3 µM) was 0.5% and the viability, T/C (second compound 0.0949 µM, first compound 0.00949 µM) was 1.59%. For the same compound, the viability, T/C (second compound 0.0949 µM, first compound 0.03 µM) was 1.44%, the viability, T/C (second compound 0.0949 µM, first compound 0.0949 µM) was 0.98% and the viability, T/C (second compound 0.0949 µM, first compound 0.3 µM) was 0.78%. For the same compound, the viability, T/C (second compound 0.0949 µM, first compound 0.949 µM) was 0.62%, the viability, T/C (second compound 0.0949 µM, first compound 3 µM) was 5.05% and the viability, T/C (second compound 0.3 µM, first compound 0.00949 µM) was 1.48%. The viability, T/C (second compound 0.3 µM, first compound 0.03 µM) was 1.46%, the viability, T/C (second compound 0.3 µM, first compound 0.0949 µM) was 1.06% and the viability, T/C (second compound 0.3 µM, first compound 0.3 µM) was 0.57%. For the same compound, the viability, T/C (second compound 0.3 µM, first compound 0.949 µM) was 0.28% and the viability, T/C (second compound 0.3 µM, first compound 3 µM) was 0.2%.
